Values quoted from earlier work in patent US12268209B2, “Liquid sulfonylurea-containing herbicidal compositions” (Mitsui AgriScience International S.A./N.V., priority 2014, dated 2025).

Tests used:
[1] = after 5 days, depending on the selected solvent; 52° C.
[2] = after one week of storage at 40° C.; compositions of WO 2007/027863 A2

Compound | metsulfuron methyl lost [1] | tribenuron-methyl lost [2]
COC(=O)c1ccccc1S(=O)(=O)NC(=O)Nc1nc(C)nc(OC)n1 [metsulfuron-methyl, methyl 2-[[[[(4-methoxy-6-methyl-1,3,5-triazin-2-yl)amino]carbonyl]amino]sulfonyl]benzoate] | 25-30% | 
COC(=O)c1ccccc1S(=O)(=O)NC(=O)N(C)c1nc(C)nc(OC)n1 [tribenuron-methyl, methyl 2-[[[[N-(4-methoxy-6-methyl-1,3,5-triazin-2-yl)-N-methylamino]carbonyl]amino]-sulfonyl]benzoate] |  | up to 66.5%
